Test results reported in patent publication US12588678B2, “Oxazoline compound, synthesis method therefor and application thereof” (NANKAI UNIVERSITY, priority 2019, dated 2026).

What was measured:
[1] = test system: Tetranychus cinnabarinus mite eggs; test: Activity against mite eggs, dipping method on bean seedling leaves; type: in vivo; settings: for mortality at 1 µg/mL / mortality at 10 µg/mL / mortality at 100 µg/mL / mortality at 200 µg/mL / mortality at 0.1 µg/mL / mortality at 0.001 µg/mL / mortality at 0.01 µg/mL / mortality at 0.5 µg/mL: Tetranychus cinnabarinus, 96 h, checked after 4 days; for mortality at 1 µg/mL: read-out: mortality of mite eggs (%), 1 mg/L; for mortality at 10 µg/mL: read-out: mortality of mite eggs (%), 10 mg/L; for mortality at 100 µg/mL: read-out: mortality of mite eggs (%), 100 mg/L; for mortality at 200 µg/mL: read-out: mortality of mite eggs (%), 200 mg/L; for mortality at 0.1 µg/mL: read-out: mortality of mite eggs (%), 0.1 mg/L; for mortality at 0.001 µg/mL: read-out: mortality of mite eggs (%), 0.001 mg/L; for mortality at 0.01 µg/mL: read-out: mortality of mite eggs (%), 0.01 mg/L; for mortality at 0.5 µg/mL: read-out: mortality of mite eggs (%), 0.5 mg/L; for activity on mite eggs, times that of etoxazole: relative to etoxazole
Excerpt: (§1) The assay examples are used to illustrate the acaricidal activity against Tetranychus cinnabarinus (mortality of mite larvae and mortality of mite eggs) of the compounds having the structure represented by formula (I), and the results are shown in tables 1 to 9, where mortality of mite larvae % =(number of dead mite larvae applied/total number of mite larvae applied)×100, and mortality of mite eggs %= (number of dead mite eggs applied/total number of mite eggs applied)×100.
Tetranychus cinnabarinus bred indoors on bean seedlings was used as a test subject by the dipping method. Move female adult mites onto the newly grown complete bean seedling leaves with two leaves, cut off the bean seedlings, place the bean seedlings in a greenhouse with illumination at 25° C. for laying eggs for 24 hours, then remove adult mites and keep mite eggs. After continuously culturing in the greenhouse for one day, completely soak the bean seedling leaves containing the acarid eggs into the prepared sample solution to be tested for 5-6 seconds by using tweezers, slightly throw off residual liquid, put the bean seedling leaves back to the culture cup, continuously culture for 4 days and then check the result. One of the plants was immersed in a solution containing no sample to be tested and the remaining additives were identical to the sample solution as a blank control. Each compound was replicated three times.

[2] = test system: Tetranychus cinnabarinus mite larvae; test: Larvicidal activity test, dipping method on bean seedling leaves; type: in vivo; settings: for mortality at 10 µg/mL / mortality at 100 µg/mL / mortality at 200 µg/mL / mortality at 0.1 µg/mL / mortality at 1 µg/mL / mortality at 0.001 µg/mL / mortality at 0.01 µg/mL / mortality at 0.5 µg/mL: Tetranychus cinnabarinus, 96 h, checked after 4 days; for mortality at 10 µg/mL: read-out: mortality of mite larvae (%), 10 mg/L; for mortality at 100 µg/mL: read-out: mortality of mite larvae (%), 100 mg/L; for mortality at 200 µg/mL: read-out: mortality of mite larvae (%), 200 mg/L; for mortality at 0.1 µg/mL: read-out: mortality of mite larvae (%), 0.1 mg/L; for mortality at 1 µg/mL: read-out: mortality of mite larvae (%), 1 mg/L; for acaricidal activity compared with etoxazole: Tetranychus cinnabarinus eggs and larvae, etoxazole as reference; for mortality at 0.001 µg/mL: read-out: mortality of mite larvae (%), 0.001 mg/L; for mortality at 0.01 µg/mL: read-out: mortality of mite larvae (%), 0.01 mg/L; for mortality at 0.5 µg/mL: read-out: mortality of mite larvae (%), 0.5 mg/L; for larvicidal activity, times that of etoxazole: relative to etoxazole
Excerpt: as §1
Tetranychus cinnabarinus bred indoors on bean seedlings was used as a test subject by the dipping method. Move adult mites onto the newly grown complete bean seedling leaves with two leaves, cut off the bean seedlings, place the bean seedlings in a greenhouse with illumination at 25° C. for laying eggs for 24 hours, then remove adult mites and keep mite eggs. And continuously culture in the greenhouse for 5 days until mite eggs hatch into mite larvae (ensuring that the number of the mites on each tested leaf is not less than 60).
Completely immerse the bean seedling leaves containing the mite larvae into the sample solution to be detected with Tween at the prepared concentration for 5-6 seconds by using tweezers, slightly throw off residual liquid, put the bean seedling leaves back to the culture cup, continuously culture for 4 days and check the result. One of the plants was immersed in a solution containing no sample to be tested and the remaining additives were identical to the sample solution as a blank control. Each compound was replicated three times.

Row | SMILES | mortality at 1 µg/mL [1] [%] | mortality at 10 µg/mL [1] [%] | mortality at 100 µg/mL [1] [%] | mortality at 200 µg/mL [1] [%] | mortality at 10 µg/mL [2] [%] | mortality at 100 µg/mL [2] [%] | mortality at 200 µg/mL [2] [%] | mortality at 0.1 µg/mL [1] [%] | mortality at 0.1 µg/mL [2] [%] | mortality at 1 µg/mL [2] [%] | mortality at 0.001 µg/mL [1] [%] | mortality at 0.01 µg/mL [1] [%] | mortality at 0.5 µg/mL [1] [%] | acaricidal activity compared with etoxazole [2] | mortality at 0.001 µg/mL [2] [%] | mortality at 0.01 µg/mL [2] [%] | mortality at 0.5 µg/mL [2] [%] | activity on mite eggs, times that of etoxazole [1] [times] | larvicidal activity, times that of etoxazole [2] [times]
1 | Fc1cccc(F)c1C1=NC(c2ccc(Cn3ccc4cc(Br)ccc43)cc2)CO1 (stereo not shown) [Compound R1-24] | 40 | 80 | 100 | 100 | 60 | 100 | 100 | – | – | – | – | – | – | – | – | – | – | – | –
2 | COc1ccc2ccn(Cc3ccc(C4COC(c5c(F)cccc5F)=N4)cc3)c2c1 (stereo not shown) [Compound R1-25] | 40 | 65 | 90 | 100 | 20 | 70 | 80 | – | – | – | – | – | – | – | – | – | – | – | –
3 | COCc1ccc(C2COC(c3c(F)cccc3F)=N2)cc1 (stereo not shown) [Compound R2-1] | 97 | 100 | 100 | 100 | 100 | 100 | 100 | 60 | 50 | 85 | – | – | – | – | – | – | – | – | –
4 | CCOCc1ccc(C2COC(c3c(F)cccc3F)=N2)cc1 (stereo not shown) [Compound R2-2] | 95 | 100 | 100 | 100 | 90 | 100 | 100 | 85 | 80 | 90 | 40 | 65 | 90 | higher acaricidal activity than etoxazole | 30 | 50 | 83 | – | –
5 | CCCOCc1ccc(C2COC(c3c(F)cccc3F)=N2)cc1 (stereo not shown) [Compound R2-3] | 100 | 100 | 100 | 100 | 97 | 100 | 100 | 85 | 90 | 95 | 50 | 77 | 92 | higher acaricidal activity than etoxazole | 45 | 70 | 91 | 105 | 58
6 | FCCOCc1ccc(C2COC(c3c(F)cccc3F)=N2)cc1 (stereo not shown) [Compound R2-4] | 90 | 98 | 100 | 100 | 92 | 100 | 100 | 70 | 70 | 85 | – | – | – | – | – | – | – | – | –
7 | Fc1cccc(F)c1C1=NC(c2ccc(COCC(F)(F)F)cc2)CO1 (stereo not shown) [Compound R2-5] | 97 | 100 | 100 | 100 | 100 | 100 | 100 | 90 | 90 | 95 | 47 | 70 | 90 | higher acaricidal activity than etoxazole | 37 | 65 | 90 | 105 | 27
8 | C=C(C)COCc1ccc(C2COC(c3c(F)cccc3F)=N2)cc1 (stereo not shown) [Compound R2-6] | 100 | 100 | 100 | 100 | 100 | 100 | 100 | 95 | 80 | 90 | 30 | 60 | 86 | higher acaricidal activity than etoxazole | 21 | 45 | 80 | – | –
9 | C#CCCOCc1ccc(C2COC(c3c(F)cccc3F)=N2)cc1 (stereo not shown) [Compound R2-7] | 90 | 95 | 100 | 100 | 90 | 100 | 100 | 70 | 40 | 75 | – | – | – | – | – | – | – | – | –
10 | Fc1cccc(F)c1C1=NC(c2ccc(COCC#Cc3ccccc3)cc2)CO1 (stereo not shown) [Compound R2-8] | 80 | 90 | 100 | 100 | 92 | 100 | 100 | 60 | 50 | 80 | – | – | – | – | – | – | – | – | –
11 | Fc1cccc(F)c1C1=NC(c2ccc(COCC3CCCO3)cc2)CO1 (stereo not shown) [Compound R2-9] | 55 | 85 | 100 | 100 | 75 | 95 | 100 | – | – | 30 | – | – | – | – | – | – | – | – | –
12 | Fc1cccc(F)c1C1=NC(c2ccc(COCc3ccco3)cc2)CO1 (stereo not shown) [Compound R2-10] | – | 75 | 100 | 100 | 62 | 80 | 95 | – | – | – | – | – | – | – | – | – | – | – | –
13 | Fc1cccc(F)c1C1=NC(c2ccc(COCc3cccs3)cc2)CO1 (stereo not shown) [Compound R2-11] | 75 | 90 | 100 | 100 | 80 | 100 | 100 | – | – | 70 | – | – | – | – | – | – | – | – | –
14 | Fc1cccc(F)c1C1=NC(c2ccc(COc3ccccn3)cc2)CO1 (stereo not shown) [Compound R2-12] | 65 | 90 | 100 | 100 | 95 | 100 | 100 | – | – | 50 | – | – | – | – | – | – | – | – | –
15 | Fc1cccc(F)c1C1=NC(c2ccc(COc3cccnc3)cc2)CO1 (stereo not shown) [Compound R2-13] | 80 | 85 | 100 | 100 | 95 | 100 | 100 | 70 | – | 60 | – | – | – | – | – | – | – | – | –
16 | Fc1cccc(F)c1C1=NC(c2ccc(COc3ccncc3)cc2)CO1 (stereo not shown) [Compound R2-14] | – | 50 | 100 | 100 | – | 65 | 90 | – | – | – | – | – | – | – | – | – | – | – | –
17 | Fc1cccnc1OCc1ccc(C2COC(c3c(F)cccc3F)=N2)cc1 (stereo not shown) [Compound R2-15] | – | 70 | 100 | 100 | 60 | 80 | 100 | – | – | – | – | – | – | – | – | – | – | – | –
18 | Fc1cccc(F)c1C1=NC(c2ccc(COc3ccncn3)cc2)CO1 (stereo not shown) [Compound R2-16] | – | 50 | 100 | 100 | – | 50 | 88 | – | – | – | – | – | – | – | – | – | – | – | –
